As a reminder, the IC50 is the point on the concentration scale where inhibition reaches its midpoint. Low values mean greater potency in that assay, high ones weaker potency in that assay.

The subject of one experiment is A431 (human). Put plainly: cells. As to conditions: A431, 72 h.
The compound `COc1ccc(Nc2ncnc3cc(OC)c(OCCCSc4nc5ccccc5o4)cc23)cc1` yielded a half-inhibitory concentration (IC50) of 13.1 µM.

Consider `CCCCc1nc(Cl)c(C=O)n1CCCOc1cc2c(Nc3cccc(F)c3)ncnc2cc1OC`, for which 12 µM corresponded to half-maximal inhibition (IC50).

Consider `COc1ccc(Nc2ncnc3cc(OC)c(OCCCSc4nc5ccccc5s4)cc23)cc1`, for which the IC50 is 14.2 µM.

In turn, `CCc1cc(Br)ccc1Nc1ncnc2cc(OC)c(OCCCSc3nc4ccccc4o3)cc12` showed an IC50 of 17.2 µM.

`CCCCc1nc(Cl)c(CO)n1CCCOc1cc2c(Nc3cccc(Br)c3)ncnc2cc1OC` showed a 50% inhibitory concentration (IC50) of 8.2 µM.

`CCCCc1nc(Cl)c(C=O)n1CCCOc1cc2c(Nc3cccc(I)c3)ncnc2cc1OC`: the IC50 was found to be 3 µM.

Turning to `CCCCc1nc(Cl)c(CO)n1CCCOc1cc2c(Nc3cccc(I)c3)ncnc2cc1OC`, half-maximal inhibition (IC50) required 9.95 µM.

Compound `COc1cc2ncnc(Nc3ccc(C)cc3)c2cc1OCCCSc1nc2ccccc2o1` registered an IC50 of 12.1 µM.

The compound `COc1cc2ncnc(Nc3cccc(C(F)(F)F)c3)c2cc1OCCCSc1nc2ccccc2s1` yielded an IC50 of 4.05 µM.

As for `CCCCc1nc(Cl)c(CO)n1CCCOc1cc2c(Nc3ccc(OC)cc3)ncnc2cc1OC`, inhibition was half-maximal at 20 µM (IC50).

Compound `CCCCc1nc(Cl)c(C=O)n1CCCOc1cc2c(Nc3ccc(OC)cc3)ncnc2cc1OC` showed an IC50 of 14 µM.

Take `CCCCc1nc(Cl)c(CO)n1CCCOc1cc2c(Nc3cccc(F)c3)ncnc2cc1OC`: inhibition was half-maximal at 17.7 µM (IC50).

The compound `COc1cc2ncnc(Nc3ccc(C)cc3)c2cc1OCCCSc1nc2ccccc2s1` registered an IC50 of 14.2 µM.

Take `CCCCc1nc(Cl)c(CO)n1CCCOc1cc2c(Nc3ccc(Br)cc3CC)ncnc2cc1OC`: inhibition was half-maximal at 10.6 µM (IC50).

In the case of `COc1cc2ncnc(Nc3ccc(OC(F)(F)F)cc3)c2cc1OCCCSc1nc2ccccc2o1`, the IC50 was determined as 9.08 µM.

With `CCCCc1nc(Cl)c(C=O)n1CCCOc1cc2c(Nc3cccc(Br)c3)ncnc2cc1OC`, it took 6.44 µM to reach half-maximal inhibition (IC50).

The compound `CCCCc1nc(Cl)c(CO)n1CCCOc1cc2c(Nc3ccc(F)c(Cl)c3)ncnc2cc1OC` yielded an IC50 of 5.99 µM.

In turn, `COc1cc2ncnc(Nc3ccc(F)c(Cl)c3)c2cc1OCCCSc1nc2ccccc2o1` showed an IC50 of 4.05 µM.

Turning to `C#Cc1cccc(Nc2ncnc3cc(OC)c(OCCCn4c(CCCC)nc(Cl)c4C=O)cc23)c1`, the IC50 was found to be 10.1 µM.

In turn, `CCCCc1nc(Cl)c(C=O)n1CCCOc1cc2c(Nc3cccc(C(F)(F)F)c3)ncnc2cc1OC` showed an IC50 of 3.51 µM.

`COc1cc2ncnc(Nc3cccc(C(F)(F)F)c3)c2cc1OCCCSc1nc2ccccc2o1`: half-maximal inhibition (IC50) was put at 4.03 µM.

For `C#Cc1cccc(Nc2ncnc3cc(OC)c(OCCCn4c(CCCC)nc(Cl)c4CO)cc23)c1`, the IC50 is 10 µM.

On to `COc1cc2ncnc(Nc3ccc(F)c(Cl)c3)c2cc1OCCCSc1nc2ccccc2s1`, for which 5.37 µM corresponded to half-maximal inhibition (IC50).

Turning to `CCCCc1nc(Cl)c(CO)n1CCCOc1cc2c(Nc3cccc(C(F)(F)F)c3)ncnc2cc1OC`, half-maximal inhibition (IC50) required 8.28 µM.

For `CCCCc1nc(Cl)c(C=O)n1CCCOc1cc2c(Nc3ccc(F)c(Cl)c3)ncnc2cc1OC`, the IC50 worked out at 5.02 µM.

With `CCCCc1nc(Cl)c(C=O)n1CCCOc1cc2c(Nc3ccc(Br)cc3CC)ncnc2cc1OC`, inhibition was half-maximal at 6.56 µM (IC50).

As for `CCc1cc(Br)ccc1Nc1ncnc2cc(OC)c(OCCCSc3nc4ccccc4s3)cc12`, the IC50 turned out to be 5.87 µM.

Another experiment has as its system MCF-7 (human). The experiment in a line: cells. As to conditions: MCF-7, 72 h.
In turn, `CCCCc1nc(Cl)c(C=O)n1CCCOc1cc2c(Nc3cccc(I)c3)ncnc2cc1OC` gave an IC50 of 32.6 µM.

`COc1cc2ncnc(Nc3cccc(C(F)(F)F)c3)c2cc1OCCCSc1nc2ccccc2s1` came in with an IC50 of 35.9 µM.

Regarding `COc1cc2ncnc(Nc3ccc(F)c(Cl)c3)c2cc1OCCCSc1nc2ccccc2o1`, the IC50 turned out to be 37 µM.

In turn, `CCCCc1nc(Cl)c(C=O)n1CCCOc1cc2c(Nc3cccc(C(F)(F)F)c3)ncnc2cc1OC` had an IC50 of 38.8 µM.

For the compound `COc1cc2ncnc(Nc3cccc(C(F)(F)F)c3)c2cc1OCCCSc1nc2ccccc2o1`, half-maximal inhibition (IC50) was put at 37.3 µM.

(Values after ChEMBL document CHEMBL1152479, “Synthesis and in vitro antitumor activities of novel 4-anilinoquinazoline derivatives” (Eur J Med Chem, 2009).)
